Reference: the NIST ThermoML archive (doi:10.1021/je100897y)
Where “and” joins values, the source holds several entries; their conditions need not be identical. Equal values may be shown once.

Tests used:
[1] = 298.15 K; 101.33 kPa; Liquid
[2] = excess molar enthalpy (molar enthalpy of mixing); xn = mol fraction of the nth substance listed; conditions: 298.15 K, 101 kPa, Liquid, Flow calorimetry

CCCOCCC [dipropyl ether]
Conditions | mass density [kg/m3]
[1] | 741.997

CCCOCCC [dipropyl ether] + CCCCOCCCC
[2]
Conditions | excess molar enthalpy [kcal/mol]
x1 = 0.05 | 0.000533
x1 = 0.1 | 0.00102
x1 = 0.15 | 0.0014
x1 = 0.2001 | 0.00175
x1 = 0.25 | 0.00205
x1 = 0.3 | 0.00229
x1 = 0.35 | 0.00246
x1 = 0.3998 | 0.00261
x1 = 0.4497 | 0.00275
x1 = 0.4998 | 0.00283
x1 = 0.5004 | 0.00283
x1 = 0.55 | 0.00284
x1 = 0.6001 | 0.00281
x1 = 0.65 | 0.00271
x1 = 0.6999 | 0.00253
x1 = 0.75 | 0.00228
x1 = 0.8 | 0.00196
x1 = 0.8503 | 0.00159
x1 = 0.9 | 0.00111
x1 = 0.95 | 0.000612

CCCOCCC [dipropyl ether] + C=CCCCC
[2]
Conditions | excess molar enthalpy [kcal/mol]
x1 = 0.0529 | 0.00158
x1 = 0.1001 | 0.00289
x1 = 0.15 | 0.00394
x1 = 0.2001 | 0.0048
x1 = 0.25 | 0.00545
x1 = 0.3002 | 0.00595
x1 = 0.3499 | 0.00632
x1 = 0.4001 | 0.00654
x1 = 0.4501 | 0.00671
x1 = 0.5001 | 0.00669
x1 = 0.55 | 0.00661
x1 = 0.5998 | 0.00641
x1 = 0.6499 | 0.00609
x1 = 0.6996 | 0.0057
x1 = 0.75 | 0.00515
x1 = 0.8003 | 0.0045
x1 = 0.85 | 0.00368
x1 = 0.9 | 0.00271
x1 = 0.95 | 0.00146

C=CCCCC [hex-1-ene]
Conditions | mass density [kg/m3]
[1] | 668.762

C1CCOC1 [tetrahydrofuran]
Conditions | mass density [kg/m3]
[1] | 882.078

CCCOCCC [dipropyl ether] + C1CCOC1
[2]
Conditions | excess molar enthalpy
x1 = 0.05 | 0.0125 kcal/mol
x1 = 0.1 | 0.0232 kcal/mol
x1 = 0.1501 | 0.0325 kcal/mol
x1 = 0.2 | 0.0402 kcal/mol
x1 = 0.2498 | 0.0468 kcal/mol
x1 = 0.2998 | 0.0518 kcal/mol
x1 = 0.3503 | 0.0556 kcal/mol
x1 = 0.3998 | 0.058 kcal/mol
x1 = 0.45 | 0.0591 kcal/mol
x1 = 0.4998 | 0.0594 kcal/mol and 0.0593 kcal/mol
x1 = 0.5499 | 0.0585 kcal/mol
x1 = 0.5999 | 0.0565 kcal/mol
x1 = 0.6502 | 0.0535 kcal/mol
x1 = 0.7003 | 0.0493 kcal/mol
x1 = 0.7499 | 0.0441 kcal/mol
x1 = 0.7999 | 0.0381 kcal/mol
x1 = 0.85 | 0.0305 kcal/mol
x1 = 0.9 | 0.0216 kcal/mol
x1 = 0.95 | 0.0115 kcal/mol
